Reference: article PMC5737332

Columns and labels:
[1] = tested on: (AT)4 hairpin (DNA, hairpin) CATATATATCCCCATATATATG; assay: SPR (Biacore X-100); settings: Na+ 200 mM; 25 °C; site 1 of 2; running buffer for compound titration not explicitly stated
[2] = tested on: AATAAT_ATTATT hairpin (DNA, hairpin) GGGGAATAATCGCGATTATTCCCCAATAATCGCGATTATT; assay: SPR competition; settings: 200 mM NaCl, 3 mM EDTA, 10 mM HEPES pH 7.4, 0.05% P-20, 25 °C
[3] = tested on: AATT hairpin (DNA, hairpin) CGAATTCGTCTCCGAATTCG; assay: SPR (Biacore X-100); settings: Na+ 200 mM; 25 °C; site 1 of 2; running buffer for compound titration not explicitly stated
[4] = tested on: AATAAT_ATTATT hairpin (DNA, hairpin) GGGGAATAATCGCGATTATTCCCCAATAATCGCGATTATT; assay: SPR (Biacore X-100); settings: Na+ 200 mM; 25 °C; site 1 of 2; running buffer for compound titration not explicitly stated
[5] = tested on: (CG)4 hairpin (DNA, hairpin) CGCGCGCGTTTTCGCGCGCG; assay: SPR (Biacore X-100); settings: Na+ 200 mM; 25 °C; one-site fit; running buffer for compound titration not explicitly stated
HMGB1 box A and box B = HMGB1 box A and box B (rat, UniProt P63159 8-165); assay: SPR; K1, high-affinity site of two-site fit; SPR (Biacore X-100), HEPES 1 buffer: 10 mM HEPES, 3 mM EDTA, 200 mM NaCl, 0.05% P-20, pH 7.4, 25 C; settings: protein: recombinant; tags: GST (GST-tagged construct in pGEX2T); label: 5'-biotin; hairpin as stated by the authors; loop underlining lost in text
Sequence of HMGB1 box A and box B (P63159 8-165): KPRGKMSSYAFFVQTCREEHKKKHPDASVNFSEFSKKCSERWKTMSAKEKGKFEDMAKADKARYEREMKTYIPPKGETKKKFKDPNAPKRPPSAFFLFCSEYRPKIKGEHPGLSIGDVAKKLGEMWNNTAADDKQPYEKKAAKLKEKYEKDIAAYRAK

K1 (KD) [1] [nM]	IC50 ([2]; displaces 2 μM HMGA1a(Δ50-91) protein) [nM]	IC50 ([2]; displaces 2 μM HMGB1 (box A+B) protein) [nM]	K1 (KD) [3] [nM]	K1 (KD) [4] [nM]	K (KD) [5] [nM]	Molecule	Kd (HMGB1 box A and box B) [nM]
650	6000	3400	262	430	6850	O=C(Nc1ccc(NC2=NCCN2)c(Cl)c1)c1ccc(NC2=NCCN2)cc1	
						GGGGAATAATCGCGATTATTCCCCAATAATCGCGATTATT (structured_DNA) [AATAAT_ATTATT hairpin]	330
